Values joined by “and” are separate entries in the source; they are usually repeats but may differ in a detail not shown here. Identical values can stand only once.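 Step 1: Grow cells in 96-well plates. Step 2: Expose to compound for 48 hours at 5 concentrations. Step 3: Interpolate endpoints linearly; if unreached, use highest concentration. Abbreviation: GI50, concentration required for 50% inhibition of growth. TGI is the concentration that stops growth completely.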
Key:
Test in all cases: NCI-60 cell line screen, 48 h
KM12 colon = tested on: KM12 colon
IGROV1 ovarian = tested on: IGROV1 ovarian
SF-268 CNS = tested on: SF-268 CNS
UO-31 renal = tested on: UO-31 renal
OVCAR-5 ovarian = tested on: OVCAR-5 ovarian
MOLT-4 leukemia = tested on: MOLT-4 leukemia
OVCAR-4 ovarian = tested on: OVCAR-4 ovarian
SK-OV-3 ovarian = tested on: SK-OV-3 ovarian
HS 578T breast = tested on: HS 578T breast
MDA-MB-231 breast = tested on: MDA-MB-231 breast

Structure (SMILES) | TGI (KM12 colon) | TGI (IGROV1 ovarian) | TGI (SF-268 CNS) | TGI (UO-31 renal) | TGI (OVCAR-5 ovarian) | TGI (MOLT-4 leukemia) | TGI (OVCAR-4 ovarian) | TGI (SK-OV-3 ovarian) | TGI (HS 578T breast) | TGI (MDA-MB-231 breast) | GI50 (KM12 colon) | GI50 (IGROV1 ovarian) | GI50 (HS 578T breast) | GI50 (SF-268 CNS) | GI50 (UO-31 renal) | GI50 (OVCAR-5 ovarian) | GI50 (MOLT-4 leukemia) | GI50 (MDA-MB-231 breast) | GI50 (OVCAR-4 ovarian) | GI50 (SK-OV-3 ovarian)
CCCCCCC(=O)C/C(CCC(=O)N(Cc1ccccc1)Cc1ccccc1)=N\NC(N)=O | > 100 µM | > 100 µM | > 100 µM | > 100 µM | > 100 µM | > 100 µM | > 100 µM | > 100 µM |  |  |  |  |  |  |  |  |  |  |  | 
CCOC(=O)[C@@]12C(C)=CC(=O)O[C@]1(C)C1C(=O)NC(=O)C12 (some centres not stated) | > 100 µM | > 100 µM |  | > 100 µM |  | > 100 µM | > 100 µM | > 100 µM |  |  |  |  |  |  |  |  |  |  |  | 
COc1ccc(CSC2=C(C#N)C(=O)NC3(CCCCC3)S2)cc1 |  | > 100 µM | > 87.4 µM | > 100 µM | > 100 µM | > 100 µM | > 100 µM | > 100 µM | > 75.8 µM | > 100 µM |  |  |  |  |  |  |  |  |  | 
C=CCC12CC(=O)CCC1c1ccc(OC)cc1C2=O (configuration not stated) | > 100 µM | > 100 µM | > 100 µM | > 100 µM | > 100 µM | > 100 µM | > 100 µM | > 100 µM |  |  |  |  |  |  |  |  |  |  |  | 
CC1CCCC(C#N)(NOC2=NCCN2)C1 (configuration not stated) | > 100 µM | > 100 µM | > 100 µM | > 100 µM | > 100 µM | > 100 µM | > 100 µM |  | > 100 µM | > 100 µM | 48.4 µM | 30.4 µM | 52.3 µM | 60.3 µM | 31.8 µM | > 100 µM | 10.7 µM | 19.4 µM | 48.3 µM | 
O=c1cc[nH]cc1-c1c[nH]ccc1=O | > 100 µM | > 100 µM |  | > 100 µM |  | > 100 µM |  | > 100 µM |  |  |  |  |  |  |  |  |  |  |  | 
CC(C)C1(NC(=O)C2CC3c4cccc5[nH]cc(c45)CC3N(C)C2)OC2(O)C3CCCN3C(=O)C(Cc3ccccc3)N2C1=O (configuration not stated) | 82.2 µM | > 100 µM | > 100 µM | > 100 µM | > 100 µM | 80.4 µM | > 100 µM |  | > 100 µM | 56.7 µM |  |  |  |  |  |  |  |  |  | 
Cc1ccc(N2C(=O)/C(=C/c3ccc(N(CCC#N)CCC#N)cc3)N=C2COc2ccc(Cl)cc2Cl)cc1 | > 100 µM | > 100 µM | > 100 µM | > 100 µM | > 100 µM | > 100 µM | > 100 µM | > 100 µM |  |  |  |  |  |  |  |  |  |  |  | 
COC(=O)c1onc(C2OC(C)(C)OC2C(O)COC(c2ccccc2)(c2ccccc2)c2ccccc2)c1C(=O)OC (configuration not stated) | > 100 µM |  | > 100 µM | > 100 µM | > 100 µM | > 100 µM | > 100 µM |  | > 100 µM | > 100 µM |  |  |  |  |  |  |  |  |  | 
CCCCCCCC(=O)[O-].CCCCCCCC(=O)[O-].N.N.N.N.[Co+3].[O-][Cl+3]([O-])([O-])[O-] | > 100 µM | > 100 µM | > 100 µM | > 100 µM | > 100 µM | > 100 µM |  | > 100 µM |  |  | > 100 µM | 40.3 µM |  | 19.1 µM | > 100 µM | > 100 µM | > 100 µM |  |  | > 100 µM
N#C/C(=C/N1CCN(C(=O)c2ccco2)C1=S)C(=O)Nc1ccc(Cl)cc1 | > 50 µM | > 50 µM | 41 µM | 26.6 µM |  | > 50 µM | > 50 µM | > 50 µM |  | > 50 µM | 16.3 µM | 25.3 µM |  | 17.8 µM | 12 µM |  | 17.8 µM | 18.4 µM | 25.2 µM | 41.2 µM
CCOC(=O)c1sc2c(C(=O)OCC)n3cc(C)cc(C)c3c2c1O | > 100 µM | > 100 µM | > 100 µM | > 100 µM | > 100 µM | > 100 µM | > 100 µM | > 100 µM |  |  |  |  |  |  |  |  |  |  |  | 
COc1ccc2c(c1O)[C@@]13CCCC=C1[C@@H](C2)[N+](C)(C)CC3 | > 100 µM | > 100 µM | > 100 µM | > 100 µM | > 100 µM |  | > 100 µM | > 100 µM | > 100 µM | > 100 µM |  |  |  |  |  |  |  |  |  | 
O=C1C(Cl)=C(Cl)C(=O)N1c1ccc(Cl)c(Cl)c1Cl | > 100 µM | > 100 µM | > 100 µM | > 100 µM | > 100 µM | > 100 µM | > 100 µM | > 100 µM |  |  |  |  |  |  |  |  |  |  |  | 
COc1cc2c(cc1OC)C(C(CBr)CBr)N(C1CCCC1)CC2 (configuration not stated) | > 100 µM | > 100 µM | > 100 µM | > 100 µM | > 100 µM | > 100 µM | > 100 µM | > 100 µM |  |  |  |  |  |  |  |  |  |  |  | 
CC(C)N(C(=O)C12C3C4C5(C(=O)O)C(C1C35I)C42C(=O)O)C(C)C (configuration not stated) | > 100 µM | > 100 µM | > 100 µM | > 100 µM | > 100 µM | > 100 µM | > 100 µM | > 100 µM |  |  |  |  |  |  |  |  |  |  |  | 
C1CSC[C@H]2COC[C@@H](CSCCS1)S2 | > 100 µM |  | > 100 µM | > 100 µM | > 100 µM | > 100 µM | > 100 µM |  |  | > 100 µM |  |  |  |  |  |  |  |  |  | 
CC(C)(C)c1ccc(C2CC(=O)C3=C(C2)Nc2ccccc2N(C(=O)c2ccccc2Cl)C3c2ccc(F)cc2)cc1 (configuration not stated) | > 100 µM | > 100 µM | > 100 µM | > 100 µM | > 100 µM |  | > 100 µM | > 100 µM | > 100 µM | > 100 µM | > 100 µM | > 100 µM | > 100 µM | > 100 µM | > 100 µM | > 100 µM |  | > 100 µM | > 100 µM | > 100 µM
Cc1ccc(SSCC(O)C(O)CSSc2ccc(C)cc2)cc1 (configuration not stated) | 21.2 µM and 23.8 µM | 5.87 µM and 6.81 µM | 19.1 µM and 29.2 µM | 17.6 µM and 15.3 µM | 30.2 µM and 38.4 µM | 5.96 µM and 20.9 µM | 26.8 µM and 28.5 µM | 23.7 µM and 43.6 µM |  |  |  |  |  | 4.6 µM and 10.4 µM |  |  | 1.43 µM and 3.12 µM |  |  | 10.8 µM and 22.8 µM
CCCC(O)c1cn(-c2cccc(S(=O)(=O)O)c2)nn1 (configuration not stated) | > 100 µM | > 100 µM | > 100 µM | > 100 µM | > 100 µM | > 100 µM | > 100 µM | > 100 µM |  |  |  |  |  |  |  |  |  |  |  | 
COc1ccc(-c2cc3ccccc3[nH]c2=O)cc1OC | > 100 µM | > 100 µM | > 100 µM | > 100 µM | > 100 µM | > 100 µM | > 100 µM | > 100 µM |  |  |  |  |  |  |  |  |  |  |  | 
